# In patent US7270965B2, “Assays to screen for compounds that bind the dorsal root receptor” (AstraZeneca AB, priority 2000, dated 2007):
# Columns and labels:
# Format in all cases: cell-based
# rat DRR = target: T1, rat DRR (Rattus norvegicus, UniProt Q8R4G1); test: FLIPR calcium mobilization assay (Fluo-3), HEK-293 cells expressing rat DRR
# T1 construct: expressed in transfected cells
# T1 sequence (Q8R4G1 1-323): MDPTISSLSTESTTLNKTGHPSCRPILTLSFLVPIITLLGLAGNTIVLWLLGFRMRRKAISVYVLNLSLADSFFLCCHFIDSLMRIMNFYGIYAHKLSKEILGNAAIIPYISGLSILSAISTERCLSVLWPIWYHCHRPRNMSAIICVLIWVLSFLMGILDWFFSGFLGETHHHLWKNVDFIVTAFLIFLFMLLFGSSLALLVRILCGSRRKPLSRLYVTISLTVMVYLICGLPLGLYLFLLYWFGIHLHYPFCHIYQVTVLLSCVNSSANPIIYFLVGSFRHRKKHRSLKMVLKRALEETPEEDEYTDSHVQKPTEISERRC
# Procedure: (§1) REK-293 cells were transfected with a mammalian expression construct coding for the rat and human DRRs (pcDNA 3.0 vector, Invitrogen) using the Superfect reagent (Qiagen). A stable receptor pool of DRR was developed by applying a selection marker (G418, 0.9 mg/ml) and the cells were maintained in this selection medium. The presence of mRNA specific for clone DRR was assessed by Northern blot analysis and by the reverse transcriptase polymerase chain reaction (RT-PCR).
# (§2) In order to identify the ligand of clone rat and human DRRs, a collection of peptide and non-peptide ligands was obtained from commercial sources (Sigma, CalBiochem, American Peptide Company, Bachem, RBI, Phoenix). The compounds were dissolved in water/DMSO at 3 μM and placed in 96 well microplates. A total of 1000 compounds (peptides and non-peptides) were prepared and tested.
# (§3) A functional assay was performed with FLIPR (Fluorescent Imaging Plate Reader, Molecular Devices) using the fluorescent calcium indicator Fluo-3 (Molecular Probes) on a 96 well platform. BEK-293 cells, either expressing the receptor or wild type cells, were loaded with Fluo-3 as follows. […] The cells were analyzed using the FLIPR system to measure the mobilization of intracellular calcium in response to different compounds.
# human DRR = test: FLIPR calcium mobilization assay (Fluo-3), HEK-293 cells expressing human DRR
# Procedure: as §1, §2, §3
# [1] = test system: parental HEK-293 cells (non-transfected); test: FLIPR calcium mobilization assay (Fluo-3), parental (non-transfected) HEK-293 cells; settings: wild type / parental HEK-293 cells, compounds dissolved at 3 μM
# Procedure: as §2
# A functional assay was performed with FLIPR (Fluorescent Imaging Plate Reader, Molecular Devices) using the fluorescent calcium indicator Fluo-3 (Molecular Probes) on a 96 well platform. BEK-293 cells, either expressing the receptor or wild type cells, were loaded with Fluo-3 as follows. Stable HEK-293 clones expressing rat and human DRR or parental cells were plated at a density of 10,000 cells/well in a 96 well plate. On the day of the experiment, the DRR cells were loaded with fluorescent solution (Dulbecco's modified medium with 10% fetal bovine serum containing 4 μM Fluo-3 and 20% pluronic acid). The cells were incubated at 37 C for one hour in a humidified chamber. Following the incubation step, cells were washed five times in Hanks' with 20 mM Hepes and 0.1% BSA (pH 7.4). The cells were analyzed using the FLIPR system to measure the mobilization of intracellular calcium in response to different compounds. […]
substance,measurement,setting,value
YGGFMRRVGRPEWWMDYOKRYG-OH [BAM-22P],calcium response (mobilization of intracellular calcium),"rat DRR; HEK-293 cells expressing clone rat DRR, FLIPR, Fluo-3, compounds dissolved at 3 μM",consistently elicited signals
same,dose-response relationship of calcium response,rat DRR; cells transfected with rat DRR,observation of a dose-response relationship
same,calcium response (mobilization of intracellular calcium),"human DRR; HEK-293 cells expressing clone human DRR, FLIPR, Fluo-3, compounds dissolved at 3 μM",consistently elicited signals
same,dose-response relationship of calcium response,human DRR; cells transfected with human DRR,observation of a dose-response relationship
same,calcium response (mobilization of intracellular calcium),[1],not the wild type cells
